From patent US11377451B2, “Compositions and methods for treating cancer” (The Regents of the University of California, priority 2019, dated 2022)

Experiments:
[1] = Pharmacokinetic / brain penetration studies in mice; format: in vivo; details: male, CD-1, mouse; for Kp: brain / plasma
Method: Pharmacokinetic studies were performed on male CD-1 mice aged 8-10 weeks. Mice were dosed as indicated in duplicates. At the time points, whole blood was obtained by retro-orbital bleeding and brain tissue was harvested. Blood samples were centrifuged to obtain plasma and brain tissue was washed and homogenized. Samples were extracted with acetonitrile and supernatant was dried using a speed-vac. Dried samples were solubilized in 50:50:0.1 acetonitrile:water:formic acid and quantified on an Agilent 6400 series Triple Quadrupole LC/MS.
Disclosed in table 5 Brain to plasma percentages and unbound ratios of drugs in brain to plasma of indicated drugs in non-tumor bearing mice

HK301 = assay: GI50 assay (Cell Titer Glo proliferation, 3 days); format: cell-based, human; details: Homo sapiens, 72 h; HK301, 3 days; read-out: HK301 GI50
GBM39 = assay: GI50 assay (Cell Titer Glo proliferation, 3 days); format: cell-based, human; details: Homo sapiens, 72 h; GBM39, 3 days
[2] = Protein binding (fraction unbound in blood and brain)
[3] = Table 4, unbound partition coefficient of the brain and plasma, at equilibrium

| SMILES | GI50 (HK301) [µM] | GI50 (GBM39) [µM] | further results |
| --- | --- | --- | --- |
| CN1CCN(C[C@@H]2COc3cc4ncnc(Nc5cccc(Br)c5F)c4cc3O2)CC1 [JGK068R] | 1.4 | 3.38 | Kp uu [1, 3]: 1.05; Bound (blood) ([2]; blood): 94.67%; fraction unbound ([2]; blood, Fu (blood)): 0.0533; Bound (brain) ([2]; brain): 98.43%; fraction unbound ([2]; brain, Fu (brain)): 0.0157 |
| C#Cc1cccc(Nc2ncnc3cc4c(cc23)OCCO4)c1F [JGK038, N-(3-Ethynyl-2-fluorophenyl)-7,8-dihydro[1,4]dioxino[2,3-g]quinazolin-4-amine] | 0.791 | 2.95 | Kp ([1]; non-tumor bearing mice): 0.843; Kp uu ([1]; Table 5, unbound ratios of drugs in brain to plasma, non-tumor bearing mice): 0.575; Bound (blood) ([2]; blood): 98.70%; fraction unbound ([2]; blood, Fu (blood)): 0.013; Bound (brain) ([2]; brain): 99.11%; fraction unbound ([2]; brain, Fu (brain)): 0.0089 |
| Fc1cccc(Nc2ncnc3cc4c(cc23)OCCO4)c1F [JGK028] | 1.69 | 5.57 | Kp ([1]; non-tumor bearing mice): 1.06; Kp uu [1, 3]: 1.04; Bound (blood) ([2]; blood): 98.56%; fraction unbound ([2]; blood, Fu (blood)): 0.0144; Bound (brain) ([2]; brain): 98.59%; fraction unbound ([2]; brain, Fu (brain)): 0.0141 |
| Fc1c(Br)cccc1Nc1ncnc2cc3c(cc12)OCCO3 [JGK037, N-(3-Bromo-2-fluorophenyl)-7,8-dihydro[1,4]dioxino[2,3-g]quinazolin-4-amine] | 0.329 | 1.12 | Kp ([1]; non-tumor bearing mice): 2.12; Kp uu [1, 3]: 1.3; Bound (blood) ([2]; blood): 98.30%; fraction unbound ([2]; blood, Fu (blood)): 0.017; Bound (brain) ([2]; brain): 98.96%; fraction unbound ([2]; brain, Fu (brain)): 0.0104 |
| Fc1c(Br)cccc1Nc1ncnc2cc3c(cc12)OCC(CCN1CCOCC1)O3 (racemic) [JGK086, (±)-N-(3-Bromo-2-fluorophenyl)-8-[2-(morpholin-4-yl)ethyl]-7,8-dihydro[1,4]dioxino[2,3-g]quinazolin-4-amine] | 2.56 | 4.45 |  |
| Fc1c(Cl)cccc1Nc1ncnc2cc3c(cc12)OCCCO3 [JGK040, N-(3-Chloro-2-fluorophenyl)-8,9-dihydro-7H-[1,4]dioxepino[2,3-g]quinazolin-4-amine] | 1.72 | 7.12 |  |
| N[C@@H](Cc1ccc(Nc2ncnc3cc4c(cc23)OCCO4)cc1)C(=O)O [JGK023] | 86.2 | 96.3 |  |
| O=C(Oc1cc2ncnc(Nc3cccc(Cl)c3F)c2cc1OC(=O)c1ccccc1)c1ccccc1 [JGK004] | 23.4 | 103 |  |
| [2H]C1([2H])Oc2cc3ncnc(Nc4cccc(Cl)c4F)c3cc2OC1([2H])[2H] [JGK036, N-(3-Chloro-2-fluorophenyl)(7,7,8,8-^2H4)-7,8-dihydro[1,4]dioxino[2,3-g]quinazolin-4-amine] | 1.05 | 4.51 |  |
| COC(=O)[C@@H](N)Cc1ccc(Nc2ncnc3cc4c(cc23)OCCO4)cc1 [JGK016] | 4.05 | 61.6 |  |
| C#Cc1cccc(N(C(C)=O)c2ncnc3cc(OCCOC)c(OCCOC)cc23)c1 [JGK002] | 5.45 | 19.8 |  |
| OC1COc2cc3ncnc(Nc4cccc(Br)c4F)c3cc2O1 (racemic) [JGK050, (±)-4-(3-Bromo-2-fluoroanilino)-7,8-dihydro[1,4]dioxino[2,3-g]quinazolin-7-ol] | 1.16 | 3.57 |  |
| C#Cc1cccc(Nc2ncnc3cc(OC(=O)c4ccccc4)c(OC(=O)c4ccccc4)cc23)c1 [JGK006] | 11 | 51.4 |  |
| Fc1ccc(Nc2ncnc3cc4c(cc23)OCCO4)c(F)c1 [JGK025] | 10.7 | 27.7 |  |
| C#Cc1cccc(N(C(=O)OC(C)(C)C)C2=NC(OCC)N(C(=O)OC(C)(C)C)c3cc(OCCOC)c(OCCOC)cc32)c1 (centres unmarked) [JGK003] | 1.13 | 23.1 |  |
| CN(C)CCC1COc2cc3c(Nc4cccc(Br)c4F)ncnc3cc2O1 (racemic) [JGK087, (±)-N-(3-Bromo-2-fluorophenyl)-8-[2-(dimethylamino)ethyl]-7,8-dihydro[1,4]dioxino[2,3-g]quinazolin-4-amine] | 3.74 | 5.26 |  |

| SMILES | GI50 (HK301) [µM] | GI50 (GBM39) [µM] | further results |
| --- | --- | --- | --- |
| Fc1c(Br)cccc1Nc1ncnc2cc3c(cc12)OCC(CCN1CCCCC1)O3 (racemic) [JGK090, (±)-N-(3-Bromo-2-fluorophenyl)-8-[2-(piperidin-1-yl)ethyl]-7,8-dihydro[1,4]dioxino[2,3-g]quinazolin-4-amine] | 2.39 | 4.33 |  |
| Fc1c(Br)cccc1Nc1ncnc2cc3c(cc12)OC(CCN1CCCCC1)CO3 (racemic) [JGK085, (±)-N-(3-Bromo-2-fluorophenyl)-7-[2-(piperidin-1-yl)ethyl]-7,8-dihydro[1,4]dioxino[2,3-g]quinazolin-4-amine] | 1.02 | 2.62 |  |
| Fc1c(Br)cccc1Nc1ncnc2cc3c(cc12)OC(CN1CCCCC1)CO3 (racemic) [JGK065, (±)-N-(3-Bromo-2-fluorophenyl)-7-[(piperidin-1-yl)methyl]-7,8-dihydro[1,4]dioxino[2,3-g]quinazolin-4-amine] | 3.43 | 7.34 |  |
| FC(F)(F)c1c(Cl)cccc1Nc1ncnc2cc3c(cc12)OCCO3 [JGK017] | 64.2 | 97.6 |  |
| Fc1c(Br)cccc1Nc1ncnc2cc3c(c(F)c12)OCCO3 [JGK072, N-(3-Bromo-2-fluorophenyl)-5-fluoro-7,8-dihydro[1,4]dioxino[2,3-g]quinazolin-4-amine] | 5.02 | 12 |  |
| CN1CCN(CCC2COc3cc4c(Nc5cccc(Br)c5F)ncnc4cc3O2)CC1 (racemic) [JGK088, (±)-N-(3-Bromo-2-fluorophenyl)-8-[2-(4-methylpiperazin-1-yl)ethyl]-7,8-dihydro[1,4]dioxino[2,3-g]quinazolin-4-amine] | 2.13 | 4.06 |  |
| OC[C@H]1COc2cc3ncnc(Nc4cccc(Br)c4F)c3cc2O1 [JGK082S] | 1.67 | 1.89 |  |
| Fc1c(Nc2ncnc3cc4c(cc23)OCCO4)ccc(Cl)c1Cl [JGK060, N-(3,4-Dichloro-2-fluorophenyl)-7,8-dihydro[1,4]dioxino[2,3-g]quinazolin-4-amine] | 2.95 | 3.5 |  |
| Fc1ccc(Br)c(F)c1Nc1ncnc2cc3c(cc12)OCCO3 [JGK056, N-(3-Bromo-2,6-difluorophenyl)-7,8-dihydro[1,4]dioxino[2,3-g]quinazolin-4-amine] | 0.419 | 1.36 |  |
| COC(=O)[C@H](Cc1ccc(NC(=O)COc2cc3c(Nc4cccc(Cl)c4F)ncnc3cc2OC)cc1)NC(=O)OC(C)(C)C [JGK024] | 156 | 125 |  |
| CC(=O)OCN(c1cccc(Cl)c1F)c1ncnc2cc3c(cc12)OCCO3 [JGK043, [(3-Chloro-2-fluorophenyl)(7,8-dihydro[1,4]dioxino[2,3-g]quinazolin-4-yl)amino]methyl acetate] | 0.745 | 1.78 |  |
| COC(=O)[C@@H](Cc1ccc(Nc2ncnc3cc4c(cc23)OCCO4)cc1)NC(=O)OC(C)(C)C [JGK014] | 11.8 | 27.9 |  |
| CN1CCN(CC2COc3cc4ncnc(Nc5cccc(Br)c5)c4cc3O2)CC1 (centres unmarked) [JGK074] | 2.28 | 6.67 | Kp ([1]; non-tumor bearing mice): 1.66 |
| C[C@@H]1Oc2cc3c(Nc4cccc(Br)c4F)ncnc3cc2O[C@@H]1C (racemic) [JGK052, (±)-cis-N-(3-Bromo-2-fluorophenyl)-7,8-dimethyl-7,8-dihydro[1,4]dioxino[2,3-g]quinazolin-4-amine] | 3.87 | 9.22 |  |
| Fc1ccc(Br)cc1Nc1ncnc2cc3c(cc12)OCCO3 [JGK055, N-(5-Bromo-2-fluorophenyl)-7,8-dihydro[1,4]dioxino[2,3-g]quinazolin-4-amine] | 0.29 | 0.966 |  |
